Laboratory results published in patent publication US9951065B2 (Gilead Sciences, Inc., priority 2015, dated 2018).

These molecules were tested against T1, IDO1 (Homo sapiens, UniProt P14902) (assay: Cell-based (HeLa) assay for measurement of IDO1 inhibition (kynurenine levels in supernatant after IFNγ induction)). Conditions: HeLa cells, IFNγ-induced IDO1, kynurenine in supernatant after 48 hour incubation; geometric mean of a minimum of four determinations.
T1 construct: HeLa cells were treated with a test compound in the presence of IFNγ, which induces IDO1 expression; host or cells: H1-HeLa cells, IDO1 induced with IFNγ
T1 sequence (P14902 whole entry): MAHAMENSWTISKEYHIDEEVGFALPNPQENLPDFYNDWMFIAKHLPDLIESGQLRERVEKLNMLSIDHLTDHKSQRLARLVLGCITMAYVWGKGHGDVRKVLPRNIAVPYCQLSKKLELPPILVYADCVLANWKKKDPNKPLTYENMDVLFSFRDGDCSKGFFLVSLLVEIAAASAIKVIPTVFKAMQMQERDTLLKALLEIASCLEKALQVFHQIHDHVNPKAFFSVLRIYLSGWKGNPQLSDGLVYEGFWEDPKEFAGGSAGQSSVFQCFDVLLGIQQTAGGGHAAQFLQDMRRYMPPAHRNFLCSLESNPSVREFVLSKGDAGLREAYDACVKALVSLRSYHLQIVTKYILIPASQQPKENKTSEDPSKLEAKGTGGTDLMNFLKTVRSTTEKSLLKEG
Summary of the method: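 IDO1 activity is read as kynurenine released into the medium, detected with Ehrlich's reagent (p-dimethylaminobenzaldehyde) at 480 nm after TCA treatment. HeLa cells were exposed 48 h to compounds in 0.5% DMSO alongside IFNγ induction. Values normalized to no-IFNγ and IFNγ controls; four-parameter EC50 given as geometric mean of ≥4 determinations.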
`COCCNc1nc2nccc(C(=NO)Nc3ccc(F)c(Cl)c3)c2[nH]1` [Example 212, N-(3-chloro-4-fluorophenyl)-N′-hydroxy-2-((2-methoxyethyl)amino)-1H-imidazo[4,5-b]pyridine-7-carboximidamide] showed an EC50 of 0.876 µM.
With `CC(C)(C)OC(=O)NCCc1nc2c(F)c(F)cc(/C(=N/O)Nc3ccc(F)c(Cl)c3)c2[nH]1` [Example 213, tert-butyl (2-(7-(N-(3-chloro-4-fluorophenyl)-N′-hydroxycarbamimidoyl)-4,5-difluoro-1H-benzo[d]imidazol-2-yl)ethyl)carbamate] the EC50 was 3.62 µM.
`ON=C(Nc1ccc(F)c(Cl)c1)c1ccnc2nc(NCCN3CCC(F)(F)CC3)[nH]c12` [Example 214, N-(3-chloro-4-fluorophenyl)-2-((2-(4,4-difluoropiperidin-1-yl)ethyl)amino)-N′-hydroxy-1H-imidazo[4,5-b]pyridine-7-carboximidamide] was tested, and the EC50 was 1.91 µM.
Work on `CN(C)CCNc1nc2nccc(C(=NO)Nc3ccc(F)c(Cl)c3)c2[nH]1` [Example 215, N-(3-chloro-4-fluorophenyl)-2-((2-(dimethylamino)ethyl)amino)-N′-hydroxy-1H-imidazo[4,5-b]pyridine-7-carboximidamide] yielded an EC50 of 1.2 µM.
`CNCCNc1nc2nccc(/C(=N/O)Nc3ccc(F)c(Cl)c3)c2[nH]1` [Example 216, N-(3-chloro-4-fluorophenyl)-N′-hydroxy-2-((2-(methylamino)ethyl)amino)-1H-imidazo[4,5-b]pyridine-7-carboximidamide] was tested, and the EC50 was 2.01 µM.
In the case of `CN1CCCCC(Nc2nc3nccc(/C(=N/O)Nc4ccc(F)c(Cl)c4)c3[nH]2)C1` (centres unmarked) [Example 217, N-(3-chloro-4-fluorophenyl)-N′-hydroxy-2-((1-methylazepan-3-yl)amino)-1H-imidazo[4,5-b]pyridine-7-carboximidamide], the EC50 is reported as 2.87 µM.
`O=S1(=O)CCN(CCNc2nc3nccc(/C(=N/O)Nc4ccc(F)c(Cl)c4)c3[nH]2)CC1` [Example 218, N-(3-chloro-4-fluorophenyl)-2-((2-(1,1-dioxidothiomorpholino)ethyl)amino)-N′-hydroxy-1H-imidazo[4,5-b]pyridine-7-carboximidamide] was tested, and the EC50 was > 10 µM.
With `COCCN(C)CCNc1nc2nccc(/C(=N/O)Nc3ccc(F)c(Cl)c3)c2[nH]1` [Example 219, N-(3-chloro-4-fluorophenyl)-N′-hydroxy-2-((2-((2-methoxyethyl)(methyl)amino)ethyl)amino)-1H-imidazo[4,5-b]pyridine-7-carboximidamide] the EC50 was 3.83 µM.
Work on `CN(CCNc1nc2nccc(/C(=N/O)Nc3ccc(F)c(Cl)c3)c2[nH]1)CC(F)F` [Example 220, N-(3-chloro-4-fluorophenyl)-2-((2-((2,2-difluoroethyl)(methyl)amino)ethyl)amino)-N′-hydroxy-1H-imidazo[4,5-b]pyridine-7-carboximidamide] yielded an EC50 of 2.38 µM.
`O/N=C(\Nc1ccc(F)c(Cl)c1)c1ccnc2nc(NCCCN3CCOCC3)[nH]c12` [Example 221, N-(3-chloro-4-fluorophenyl)-N′-hydroxy-2-((3-morpholinopropyl)amino)-1H-imidazo[4,5-b]pyridine-7-carboximidamide] was tested, and the EC50 was 0.899 µM.
`O/N=C(\Nc1ccc(F)c(Cl)c1)c1ccnc2nc(NCCN3CCCCC3)[nH]c12` [Example 222, N-(3-chloro-4-fluorophenyl)-N′-hydroxy-2-((2-(piperidin-1-yl)ethyl)amino)-1H-imidazo[4,5-b]pyridine-7-carboximidamide] was tested, and the EC50 was 1.52 µM.
In the case of `O/N=C(\Nc1ccc(F)c(Cl)c1)c1ccnc2nc(NCCC3CCCCC3)[nH]c12` [Example 223, N-(3-chloro-4-fluorophenyl)-2-((2-cyclohexylethyl)amino)-N′-hydroxy-1H-imidazo[4,5-b]pyridine-7-carboximidamide], the EC50 is reported as 2.18 µM.
Molecule `O/N=C(\Nc1ccc(F)c(Cl)c1)c1ccnc2nc(NCCC3CCOCC3)[nH]c12` [Example 224, N-(3-chloro-4-fluorophenyl)-N′-hydroxy-2-((2-(tetrahydro-2H-pyran-4-yl)ethyl)amino)-1H-imidazo[4,5-b]pyridine-7-carboximidamide] has an EC50 of 3.74 µM.
For `O/N=C(\Nc1ccc(F)c(Cl)c1)c1ccnc2nc(NCC(F)F)[nH]c12` [Example 225, N-(3-chloro-4-fluorophenyl)-2-((2,2-difluoroethyl)amino)-N′-hydroxy-1H-imidazo[4,5-b]pyridine-7-carboximidamide], the EC50 was 2.19 µM.
For `O/N=C(\Nc1ccc(F)c(Cl)c1)c1ccnc2nc(NC3COC3)[nH]c12` [Example 226, N-(3-chloro-4-fluorophenyl)-N′-hydroxy-2-(oxetan-3-ylamino)-1H-imidazo[4,5-b]pyridine-7-carboximidamide], the EC50 was > 10 µM.
Molecule `O/N=C(\Nc1ccc(F)c(Cl)c1)c1ccnc2nc(NC3CCOC3)[nH]c12` (centres unmarked) [Example 227, N-(3-chloro-4-fluorophenyl)-N′-hydroxy-2-((tetrahydrofuran-3-yl)amino)-1H-imidazo[4,5-b]pyridine-7-carboximidamide] has an EC50 of 2.19 µM.
Work on `O/N=C(\Nc1ccc(F)c(Cl)c1)c1ccnc2nc(NC3CCOCC3)[nH]c12` [Example 228, N-(3-chloro-4-fluorophenyl)-N′-hydroxy-2-((tetrahydro-2H-pyran-4-yl)amino)-1H-imidazo[4,5-b]pyridine-7-carboximidamide] yielded an EC50 of 2.14 µM.
In the case of `NC(=O)CCNc1nc2c(F)c(F)cc(/C(=N/O)Nc3ccc(F)c(Cl)c3)c2[nH]1` [Example 229], the EC50 is reported as > 10 µM.
In the case of `O/N=C(\Nc1ccc(F)c(Cl)c1)c1ccnc2nc(NCCNCC(F)F)[nH]c12` [Example 230, N-(3-chloro-4-fluorophenyl)-2-((2-((2,2-difluoroethyl)amino)ethyl)amino)-N′-hydroxy-1H-imidazo[4,5-b]pyridine-7-carboximidamide], the EC50 is reported as 3.84 µM.
`CN(CCNc1nc2nccc(/C(=N/O)Nc3ccc(F)c(Cl)c3)c2[nH]1)C1CC1` [Example 231, N-(3-chloro-4-fluorophenyl)-2-((2-(cyclopropyl(methyl)amino)ethyl)amino)-N′-hydroxy-1H-imidazo[4,5-b]pyridine-7-carboximidamide] was tested, and the EC50 was 0.291 µM.
For `COCCN(CCNc1nc2nccc(/C(=N/O)Nc3ccc(F)c(Cl)c3)c2[nH]1)C1CC1` [Example 232, N-(3-chloro-4-fluorophenyl)-2-((2-(cyclopropyl(2-methoxyethyl)amino)ethyl)amino)-N′-hydroxy-1H-imidazo[4,5-b]pyridine-7-carboximidamide], the EC50 was 0.46 µM.
In the case of `O/N=C(\Nc1ccc(F)c(Cl)c1)c1ccnc2nc(NCCN3CCC3)[nH]c12` [Example 233, 2-((2-(azetidin-1-yl)ethyl)amino)-N-(3-chloro-4-fluorophenyl)-N′-hydroxy-1H-imidazo[4,5-b]pyridine-7-carboximidamide], the EC50 is reported as 1.12 µM.
Work on `COCCCNc1nc2nccc(/C(=N/O)Nc3ccc(F)c(Cl)c3)c2[nH]1` [Example 234, N-(3-chloro-4-fluorophenyl)-N′-hydroxy-2-((3-methoxypropyl)amino)-1H-imidazo[4,5-b]pyridine-7-carboximidamide] yielded an EC50 of 0.698 µM.
For `O=C1CCCN1CCNc1nc2nccc(/C(=N/O)Nc3ccc(F)c(Cl)c3)c2[nH]1` [Example 235, N-(3-chloro-4-fluorophenyl)-N′-hydroxy-2-((2-(2-oxopyrrolidin-1-yl)ethyl)amino)-1H-imidazo[4,5-b]pyridine-7-carboximidamide], the EC50 was 4.82 µM.
Work on `O=S(=O)(CCNc1nc2nccc(/C(=N/O)Nc3ccc(F)c(Cl)c3)c2[nH]1)N1CCOCC1` [Example 236, N-(3-chloro-4-fluorophenyl)-N′-hydroxy-2-((2-(morpholinosulfonyl)ethyl)amino)-1H-imidazo[4,5-b]pyridine-7-carboximidamide] yielded an EC50 of 4.77 µM.
In the case of `O/N=C(\Nc1ccc(F)c(Cl)c1)c1ccnc2nc(NCCN3CCCC(F)C3)[nH]c12` (centres unmarked) [Example 237, N-(3-chloro-4-fluorophenyl)-2-((2-(3-fluoropiperidin-1-yl)ethyl)amino)-N′-hydroxy-1H-imidazo[4,5-b]pyridine-7-carboximidamide], the EC50 is reported as 0.442 µM.
For `O/N=C(\Nc1ccc(F)c(Br)c1)c1ccnc2nc(NCCN3CCOCC3)[nH]c12` [Example 238, N-(3-bromo-4-fluorophenyl)-N′-hydroxy-2-((2-morpholinoethyl)amino)-1H-imidazo[4,5-b]pyridine-7-carboximidamide], the EC50 was 0.853 µM.
`CN(CCNc1nc2nccc(/C(=N/O)Nc3ccc(F)c(Cl)c3)c2[nH]1)C1CCOCC1` [Example 239, N-(3-chloro-4-fluorophenyl)-N′-hydroxy-2-((2-(methyl(tetrahydro-2H-pyran-4-yl)amino)ethyl)amino)-1H-imidazo[4,5-b]pyridine-7-carboximidamide] was tested, and the EC50 was 1.21 µM.
In the case of `CC(C)N(C)CCNc1nc2nccc(/C(=N/O)Nc3ccc(F)c(Cl)c3)c2[nH]1` [Example 240, N-(3-chloro-4-fluorophenyl)-N′-hydroxy-2-((2-(isopropyl(methyl)amino)ethyl)amino)-1H-imidazo[4,5-b]pyridine-7-carboximidamide], the EC50 is reported as 0.59 µM.
`NC1(CNc2nc3nccc(/C(=N/O)Nc4ccc(F)c(Cl)c4)c3[nH]2)CC1` [Example 241, 2-(((1-aminocyclopropyl)methyl)amino)-N-(3-chloro-4-fluorophenyl)-N′-hydroxy-1H-imidazo[4,5-b]pyridine-7-carboximidamide] showed an EC50 of 1.37 µM.
For `NC1(CCNc2nc3nccc(/C(=N/O)Nc4ccc(F)c(Cl)c4)c3[nH]2)CC1` [Example 242, 2-((2-(1-aminocyclopropyl)ethyl)amino)-N-(3-chloro-4-fluorophenyl)-N′-hydroxy-1H-imidazo[4,5-b]pyridine-7-carboximidamide], the EC50 was 1.63 µM.
In the case of `CNc1nc2nccc(/C(=N/O)Nc3ccc(F)c(Br)c3)c2[nH]1` [Example 257, N-(3-bromo-4-fluorophenyl)-N′-hydroxy-2-(methylamino)-1H-imidazo[4,5-b]pyridine-7-carboximidamide], the EC50 is reported as 0.241 µM.
